From patent US12590108B2, “Boracic acid compound” (Phaeno Therapeutics Co., Ltd, priority 2020, dated 2026)

Columns and labels:
Assay in all cases: MIC shift, liquid microdilution, meropenem fixed at 4 μg/mL
Format in all cases: cell-based
[1] = tested on: Klebsiella pneumoniae ATCC BAA-2470 (NDM-1); conditions: compound + meropenem fixed at 4 μg/mL; K. pneumoniae ATCC BAA-2470, NDM-1
Protocol: (§1) The test compound was tested for minimum inhibitory concentration against three strains of Klebsiella pneumoniae ATCC BAA-1705 (KPC-2), ATCC BAA-2470 (NDM-1), and ARLG-1196 (CTM-1 group, SHV, NDM, TEM), and one strain of Escherichia coli ARLG-2829 (NDM-5, OXA-1). According to the requirements of the Institute of Clinical And Laboratory Standard (CLSI), the minimum inhibitory concentration (MIC) of each drug combination was determined by liquid microdilution method under the premise of fixing the concentration of meropenem at 4 μg/mL.
(§2) Preparation of compound mother plate: On the day of the experiment, the compound to be tested (the final concentration was 0.3125 to 20 μg/mL) and meropenem (the final concentration ranged from 1 to 64 μg/mL) were dissolved in a corresponding solvent (sterile ddH2O or DMSO) to form 100× mother liquors with the highest test concentration, and the compound to be tested and meropenem were then subjected to 2-fold series gradient dilution in a V-bottom 96-well plate to obtain 100× working solutions with the final concentration.
(§3) Preparation of inoculation solution: Fresh bacterial clones were picked from an overnight Mueller Hinton II Agar medium (MHA, Cat. No. 211438, BD BBLTM) plate, suspended in sterilized physiological saline, and adjusted to a concentration of 1×10^8 CFU/mL, and the suspension was further diluted to 5-10^5 CFU/mL with Cation-Adjusted Mueller Hinton II Broth (MHB, Catalog #212332, BD BBLTM).
(§4) Detection of minimum inhibitory concentration (MIC): 1 μL of the compound to be tested and the meropenem working solution were transferred to the corresponding wells to be tested in a round-bottomed 96-well plate (Catalog #3788, Corning), and 98 μL of the inoculation solution was added to the round-bottomed 96-well plate containing drugs, which was an MIC test plate; and after the plate was inverted and cultured at 37° C. for 20-24 h, the MIC value was read, and the minimum inhibitory concentration for inhibiting bacterial growth was defined as MIC.

[2] = tested on: Klebsiella pneumoniae ARLG-1196 (CTM-1 group, SHV, NDM, TEM); conditions: compound + meropenem fixed at 4 μg/mL; K. pneumoniae ARLG-1196, CTM-1 and isoforms thereof, SHV, NDM, TEM
Protocol: as §1, §2, §3, §4

[3] = tested on: Escherichia coli ARLG-2829 (NDM-5, OXA-1); conditions: compound + meropenem fixed at 4 μg/mL; E. coli ARLG-2829 (urine clinical isolate), NDM-5, OXA-1
Protocol: as §1, §2, §3, §4

[4] = tested on: Klebsiella pneumoniae ATCC BAA-1705 (KPC-2); conditions: compound + meropenem fixed at 4 μg/mL; K. pneumoniae ATCC BAA-1705, KPC-2
Protocol: as §1, §2, §3, §4

MIC [1] | MIC [2] | MIC [3] | MIC [4] | Compound
>20 µg/mL | >20 µg/mL | >20 µg/mL | 0.0625 µg/mL | CC1(C)Oc2ccc(F)c(C(=O)O)c2OB1O [Compound 1]
>20 µg/mL | >20 µg/mL | >20 µg/mL | 20 µg/mL | COB1Oc2c(ccc(F)c2C(=O)O)OC1(C)C [Compound 2]
5 µg/mL | 2.5 µg/mL | 5 µg/mL | ≤0.3125 µg/mL | COc1ccc2c(c1C(=O)O)OB(O)CO2 [Compound 3]
2.5 µg/mL | 2.5 µg/mL | 10 µg/mL | ≤0.03 µg/mL | O=C(O)c1c(F)cc(Cl)c2c1OB(O)CO2 [Compound 4]
20 µg/mL | 10 µg/mL | >20 µg/mL | ≤0.3125 µg/mL | O=C(O)c1c(Cl)ccc2c1OB(O)CO2 [Compound 5]
10 µg/mL | 10 µg/mL | 20 µg/mL | ≤0.03 µg/mL | O=C(O)c1c(F)c(F)cc2c1OB(O)CO2 [Compound 6]
20 µg/mL | 20 µg/mL | >20 µg/mL | ≤0.03 µg/mL | O=C(O)c1ccc(Cl)c2c1OB(O)CO2 [Compound 7]
20 µg/mL | 10 µg/mL | 20 µg/mL | ≤0.3125 µg/mL | O=C(O)c1c(F)ccc2c1OB(O)CO2 [Compound 8]
>20 µg/mL | >20 µg/mL | >20 µg/mL | ≤0.3125 µg/mL | COB1COc2ccc(F)c(C(=O)O)c2O1 [Compound 9]
5 µg/mL | 2.5 µg/mL | 10 µg/mL | ≤0.03 µg/mL | O=C(O)c1cc(F)cc2c1OB(O)CO2 [Compound 10]
2.5 µg/mL | 2.5 µg/mL | 10 µg/mL | ≤0.03 µg/mL | COc1cc(Cl)c2c(c1C(=O)O)OB(O)CO2 [Compound 11]
5 µg/mL | 2.5 µg/mL | 10 µg/mL | 0.06 µg/mL | COc1c(Cl)c(Cl)c2c(c1C(=O)O)OB(O)CO2 [Compound 12]
5 µg/mL | 2.5 µg/mL | 10 µg/mL | ≤0.3125 µg/mL | O=C(O)c1c2c(cc3c1O[B-](O)(O)CO3)CCCO2 [Compound 14]
5 µg/mL | 5 µg/mL | 10 µg/mL | 0.625 µg/mL | COc1cc2c(c(C(=O)O)c1F)O[B-](O)(O)CO2 [Compound 16]
10 µg/mL | 10 µg/mL | 20 µg/mL | ≤0.3125 µg/mL | Cc1ccc2c(c1C(=O)O)O[B-](O)(O)CO2 [Compound 17]
2.5 µg/mL | 2.5 µg/mL | 2.5 µg/mL | 1.25 µg/mL | O=C(O)c1c(OCC2CC2)ccc2c1O[B-](O)(O)CO2 [Compound 20]
1.25 µg/mL | 1.25 µg/mL | 5 µg/mL | 0.625 µg/mL | O=C(O)c1c(OC2COC2)ccc2c1O[B-](O)(O)CO2 [Compound 23]
2.5 µg/mL | 1.25 µg/mL | 5 µg/mL | 0.625 µg/mL | CCCOc1ccc2c(c1C(=O)O)O[B-](O)(O)CO2 [Compound 29]
